Experiments:
[1] = target: T1, 5-hydroxytryptamine receptor 1D (Homo sapiens, UniProt P28221); assay: Compound was evaluated for its agonistic activity on 5-hydroxytryptamine 1D receptor; assay type: functional
[2] = target: T2, 5-hydroxytryptamine receptor 2C (Rattus norvegicus, UniProt P08909); assay: Binding affinity was measured on 5-hydroxytryptamine 2C receptor in J1 cells transfected with rat 5-HT2C gene labeled with [3H]mesulergine; assay type: cell-based
T2 sequence (P08909 whole entry): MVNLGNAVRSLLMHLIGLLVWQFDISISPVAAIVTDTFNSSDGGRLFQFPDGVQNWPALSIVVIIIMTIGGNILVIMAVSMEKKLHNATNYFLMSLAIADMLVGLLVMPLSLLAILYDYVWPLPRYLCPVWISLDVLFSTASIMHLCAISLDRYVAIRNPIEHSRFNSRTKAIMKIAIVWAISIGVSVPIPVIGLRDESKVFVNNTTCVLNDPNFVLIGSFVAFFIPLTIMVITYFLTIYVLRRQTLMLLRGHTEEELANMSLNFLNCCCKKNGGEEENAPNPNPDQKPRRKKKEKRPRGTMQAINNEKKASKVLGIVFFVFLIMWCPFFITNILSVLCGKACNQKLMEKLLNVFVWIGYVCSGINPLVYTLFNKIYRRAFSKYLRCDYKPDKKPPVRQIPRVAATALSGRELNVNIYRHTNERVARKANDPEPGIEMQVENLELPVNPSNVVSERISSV

[3] = target: T3, Serotonin 3 (5-HT3) receptor (Rattus norvegicus, UniProt P35563+Q9JJ16); assay: Binding affinity was measured on 5-hydroxytryptamine 3 receptor in NG-108 cells labeled with [3H]GR-65630; assay type: cell-based
T3 sequence (P35563 whole entry): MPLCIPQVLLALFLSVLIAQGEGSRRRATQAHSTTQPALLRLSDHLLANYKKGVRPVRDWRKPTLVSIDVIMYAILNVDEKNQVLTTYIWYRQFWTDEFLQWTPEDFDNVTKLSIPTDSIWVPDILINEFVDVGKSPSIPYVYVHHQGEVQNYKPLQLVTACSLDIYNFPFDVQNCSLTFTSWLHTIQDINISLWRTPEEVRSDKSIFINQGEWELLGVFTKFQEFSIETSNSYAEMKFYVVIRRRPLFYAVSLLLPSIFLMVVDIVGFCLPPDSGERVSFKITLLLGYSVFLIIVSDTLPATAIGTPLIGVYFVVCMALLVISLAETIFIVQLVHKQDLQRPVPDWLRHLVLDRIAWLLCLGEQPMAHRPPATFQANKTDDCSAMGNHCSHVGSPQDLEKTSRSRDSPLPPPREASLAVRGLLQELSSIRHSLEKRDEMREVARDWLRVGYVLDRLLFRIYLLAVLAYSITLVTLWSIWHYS
T3 sequence (Q9JJ16 whole entry): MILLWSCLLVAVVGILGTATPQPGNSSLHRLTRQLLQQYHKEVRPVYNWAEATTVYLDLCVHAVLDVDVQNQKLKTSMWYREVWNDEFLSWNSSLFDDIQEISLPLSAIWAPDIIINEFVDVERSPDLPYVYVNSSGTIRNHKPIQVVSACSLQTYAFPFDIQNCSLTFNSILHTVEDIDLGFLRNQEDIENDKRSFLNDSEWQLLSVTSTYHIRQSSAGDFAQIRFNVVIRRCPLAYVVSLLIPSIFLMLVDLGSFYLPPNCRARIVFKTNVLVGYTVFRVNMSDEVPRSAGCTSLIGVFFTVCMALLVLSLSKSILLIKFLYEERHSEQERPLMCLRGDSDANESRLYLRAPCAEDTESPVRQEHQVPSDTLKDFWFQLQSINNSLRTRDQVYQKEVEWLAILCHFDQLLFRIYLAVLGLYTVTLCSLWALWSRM

[4] = target: T1, 5-hydroxytryptamine receptor 1D; assay: Binding affinity was measured on 5-hydroxytryptamine 1D receptor alpha in COS cells transfected with human 5-HT1D alpha gene labeled with [3H]5-HT; assay type: cell-based
[5] = target: 5-hydroxytryptamine receptor 1B (Rattus norvegicus, UniProt P28564); assay: Binding affinity was measured on 5-hydroxytryptamine 1B receptor in rat striatum labeled with [3H]5-HT; assay type: tissue-based
[6] = target: 5-hydroxytryptamine receptor 2A (Homo sapiens, UniProt P28223); assay: biochemical; assay type: cell-based, GF6
5-hydroxytryptamine receptor 2A, sequence (P28223 whole entry): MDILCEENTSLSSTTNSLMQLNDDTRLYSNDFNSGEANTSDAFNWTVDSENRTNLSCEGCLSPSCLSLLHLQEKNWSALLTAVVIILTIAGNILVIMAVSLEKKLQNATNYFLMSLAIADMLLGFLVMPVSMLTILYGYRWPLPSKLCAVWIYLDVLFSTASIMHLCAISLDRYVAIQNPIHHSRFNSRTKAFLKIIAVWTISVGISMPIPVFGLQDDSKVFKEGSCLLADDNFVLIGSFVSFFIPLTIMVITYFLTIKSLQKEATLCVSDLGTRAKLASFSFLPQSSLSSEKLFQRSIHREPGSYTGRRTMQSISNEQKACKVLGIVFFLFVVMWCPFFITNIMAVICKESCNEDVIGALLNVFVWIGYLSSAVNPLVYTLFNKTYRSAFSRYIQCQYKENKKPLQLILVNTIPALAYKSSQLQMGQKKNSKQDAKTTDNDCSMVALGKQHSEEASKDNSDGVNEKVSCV

T1 sequence (P28221 whole entry): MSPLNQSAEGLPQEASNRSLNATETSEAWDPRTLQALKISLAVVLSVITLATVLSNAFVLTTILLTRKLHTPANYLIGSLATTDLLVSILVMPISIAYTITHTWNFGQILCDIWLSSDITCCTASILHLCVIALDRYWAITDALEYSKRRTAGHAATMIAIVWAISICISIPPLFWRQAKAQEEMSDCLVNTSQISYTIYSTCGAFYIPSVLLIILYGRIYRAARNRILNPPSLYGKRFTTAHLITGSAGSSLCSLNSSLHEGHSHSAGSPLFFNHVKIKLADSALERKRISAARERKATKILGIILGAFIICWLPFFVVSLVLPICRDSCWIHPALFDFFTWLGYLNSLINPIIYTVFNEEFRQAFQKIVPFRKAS
5-hydroxytryptamine receptor 1B, sequence (P28564 whole entry): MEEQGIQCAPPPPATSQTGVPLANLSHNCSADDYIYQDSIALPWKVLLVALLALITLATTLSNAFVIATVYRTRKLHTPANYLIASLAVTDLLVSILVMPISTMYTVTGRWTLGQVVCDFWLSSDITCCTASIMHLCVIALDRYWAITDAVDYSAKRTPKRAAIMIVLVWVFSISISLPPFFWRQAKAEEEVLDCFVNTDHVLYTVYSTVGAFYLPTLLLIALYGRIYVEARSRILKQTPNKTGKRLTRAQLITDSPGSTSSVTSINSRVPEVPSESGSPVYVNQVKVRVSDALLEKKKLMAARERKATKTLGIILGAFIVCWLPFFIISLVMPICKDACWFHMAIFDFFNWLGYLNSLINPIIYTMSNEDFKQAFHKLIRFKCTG

SMILES | ED50 [1] [nM] | Ki [2] [nM] | Ki [3] [nM] | Ki [4] [nM] | Ki [5] [nM] | Ki [6] [nM]
CNS(=O)(=O)Cc1ccc2[nH]cc(CCN(C)C)c2c1 | 317 | > 1000 | > 1000 |  |  | 
NCCc1c[nH]c2ccc(O)cc12 | 1.2 |  |  |  |  | 
CCCCCCCCCOc1ccc2[nH]cc(CCN)c2c1 | 68 | 270 | > 1000 | 16 | 13 | 260
